Reference: US10966961B2, “Pyrazole derivatives as bromodomain inhibitors” (GLAXOSMITHKLINE INTELLECTUAL PROPERTY (NO.2) LIMITED, priority 2017, dated 2021)

Test system: double residue mutant tandem domain BET proteins (BRD2, BRD3, BRD4 and BRDT)
Assay: Fluorescence Polarisation binding of Reference Compound X to mutant tandem BET proteins
Design: species or system Human
Conditions: double mutant vs non mutated tandem BET proteins
Description: The competition of the compounds of formula (I) with Reference Compound X for binding to the BET family (BRD2, BRD3, BRD4 and BRDT) was assessed using protein truncates spanning both bromodomain 1 (BD1) and bromodomain 2 (BD2). In order to monitor differential binding to either BD1 or BD2, single residue mutations of key tyrosines to alanine were made in the acetyl lysine binding pockets. To validate this approach, a double residue mutant tandem domain protein was produced for each of the BET family members. Utilising a Fluorescence Polarisation approach, binding affinities for each of the single and double mutants for Reference Compound X were determined. […] The affinities of the single mutated bromdomain tandem proteins for Reference Compound X were equi-potent with the corresponding non-mutated BET protein. […] In the TR-FRET competition assay, Reference Compound X is used at a concentration that is equivalent to the Kd for the non-mutated bromodomain, which ensures that no binding at the mutated bromodomain is detected. […]

Row | Structure (SMILES) | reduction in Kd (affinity) of double mutant tandem proteins versus wild type tandem BET proteins
1 | COc1ccc2c(c1)C(c1ccc(Cl)cc1)=N[C@@H](CC(=O)NCCCCCNC(=O)CCCCCC1(C)/C(=C/C=C/C=C/C3=[N+](CCCCS(=O)(=O)O)c4ccc(S(=O)(=O)O)cc4C3(C)C)N(CCCCS(=O)(=O)[O-])c3ccc(S(=O)(=O)O)cc31)c1nnc(C)n1-2 (stereo partly drawn) [Reference Compound X] | > 1000 fold

Target: T1, BRD4 BD2 (Homo sapiens, UniProt O60885, Y97A)
T1 construct: BRD4 (1-477) (Y97A) and (Y390A); made in house; host or cells: E. coli (pET15b vector)
Assay: BRD4 BD2 TR-FRET competition assay
Format: binding
Conditions: BRD4 BD2 TR-FRET; read-out: pIC50 in the BRD4 BD2 assay (converted)
Description: Time Resolved Fluorescence Resonance Energy Transfer (TR-FRET) assay
Bromodomain binding was assessed utilising a time resolved fluorescent resonance energy transfer (TR-FRET) competition assay. To enable this approach a known, high affinity, pan-BET interacting small molecule was labelled with Alexa Fluor® 647, which is a far-red-fluorescent dye (Reference Compound X). Reference Compound X acts as a reporter of bromodomain binding and is the acceptor fluorophore component of the TR-FRET pair. Europium chelate, conjugated to an anti-6*His antibody, was utilised as the donor fluorophore in the TR-FRET pair. […] A TR-FRET signal is generated when the donor and acceptor fluorophores are in close proximity, between 20-80 Å, which is enabled in this assay by binding of Reference Compound X to the bromodomain protein.
Assay Principle: In order to generate a TR-FRET signal, donor fluorophore is excited by a laser at A337 nm, which subsequently leads to emission at λ618 nm. If the acceptor fluorophore is in close proximity then energy transfer can occur, which leads to emission of Alexa Fluor® 647 at λ665 nm. In the presence of competitor compound, Reference Compound X can be displaced from binding to the bromodomain. If displacement occurs, the acceptor fluorophore is no longer in proximity to the donor fluorophore, which prevents fluorescent energy transfer and, subsequently, a loss of Alexa Fluor® 647 emission at λ665 nm.
The competition of the compounds of formula (I) with Reference Compound X for binding to the BET family (BRD2, BRD3, BRD4 and BRDT) was assessed using protein truncates spanning both bromodomain 1 (BD1) and bromodomain 2 (BD2). In order to monitor differential binding to either BD1 or BD2, single residue mutations of key tyrosines to alanine were made in the acetyl lysine binding pockets. To validate this approach, a double residue mutant tandem domain protein was produced for each of the BET family members. Utilising a Fluorescence Polarisation approach, binding affinities for each of the single and double mutants for Reference Compound X were determined.
Final purification was completed by Superdex 200 prep grade size exclusion column. Purified protein was stored at −80° C. in 20 mM HEPES pH 7.5 and 100 mM NaCl. […] Protocol for Bromodomain BRD2, 3, 4 and T, BD1+BD2 mutant TR-FRET competition assays:
All assay components were dissolved in an assay buffer composing of 50 mM HEPES pH7.4, 50 mM NaCl, 5% Glycerol, 1 mM DTT and 1 mM CHAPS. Reference Compound X was diluted, in assay buffer containing 20 nM single mutant, tandem bromodomain protein, to a concentration equivalent to 2*Kd for this bromodomain. The solution containing bromodomain and Reference Compound X was added to dose response dilutions of test compound or DMSO vehicle (a maximum of 0.5% DMSO is used in this assay) in Greiner 384 well black low volume microtitre plates and subsequently incubated for 30 minutes at rt. An equal volume of 3 nM of anti-6*His Europium chelate was added to all wells, followed by a further 30 minute incubation at rt. TR-FRET was detected using a Perkin Elmer Multimode plate reader, by exciting the donor fluorophore at λ337 nm and subsequently, after a delay of 50 μsecs, measuring emission of the donor and acceptor fluorophores at λ615 nm and λ665 nm, respectively. In order to control these assays, 16 replicates each of uninhibited (DMSO vehicle) and inhibited (10*IC50 concentrations of Example 11 of WO 2011/054846A1) TR-FRET assays were included on every microtitre plate.
cA four parameter curve fit of the following form was then applied: y=a+((b−a)/(1+(10^x/10^c)^d)
Where ‘a’ is the minimum, ‘H’ is the Hill slope, ‘c’ is the pIC50 and ‘d’ is the maximum.
All compounds (Examples) were each tested in the BRD4 BD1 and the BRD4 BD2 TR-FRET assays essentially as described above. Those of skill in the art will recognise that in vitro binding assays and cell-based assays for functional activity are subject to experimental variability.

Row | Structure (SMILES) | IC50
2 | CNC(=O)c1cc(C(=O)NC2CC2)nn1Cc1ccc2[nH]ccc2c1 [Example 233] | 1000 to 10000 nM
3 | CNC(=O)c1cc(C(=O)Nc2onc(C)c2C#N)n([C@@H](C)c2ccccc2)n1 [Example 239] | 1000 to 10000 nM
4 | CNC(=O)c1cc(C(=O)N[C@H]2[C@@H]3C[C@H](O)C[C@@H]32)n([C@H](C)c2cccc(C(F)(F)F)c2)n1 [Example 238] | 1000 to 10000 nM
5 | CNC(=O)c1cc(C(=O)NC2CC2)nn1Cc1cccc2[nH]ccc12 [Example 234] | 1000 to 10000 nM
6 | CCNC(=O)c1cc(C(=O)N[C@H]2CC[C@H](O)CC2)n([C@@H](C)c2ccccc2)n1 [Example 108, N^3-Ethyl-N^5-((1r,4S)-4-hydroxycyclohexyl)-1-((S)-1-phenylethyl)-1H-pyrazole-3,5-dicarboxamide] | 1000 to 10000 nM
7 | CNC(=O)c1cc(C(=O)N[C@@H]2C[C@@H](C)[C@H](O)[C@@H](C)C2)n([C@@H](C)c2ccccc2)n1 [Example 236] | 1000 to 10000 nM
8 | CNC(=O)c1cc(C(=O)N[C@H]2C[C@@H]2C)n([C@H](C)c2ccnc3[nH]ccc23)n1 [Example 137, 1-((R)-1-(1H-Pyrrolo[2,3-b]pyridin-4-yl)ethyl)-N^3-methyl-N^5-((1S,2S)-2-methylcyclopropyl)-1H-pyrazole-3,5-dicarboxamide] | 1000 to 10000 nM
9 | CNC(=O)c1cc(C(=O)N[C@H]2[C@@H]3COC[C@@H]32)n([C@@H](C)c2ccccc2)n1 [Example 1, N^5-((1R,5S,6r)-3-Oxabicyclo[3.1.0]hexan-6-yl)-N^3-methyl-1-((S)-1-phenylethyl)-1H-pyrazole-3,5-dicarboxamide] | 63.1 nM
10 | CNC(=O)c1cc(C(=O)NC)n(Cc2ccccc2)n1 [Example 94, 1-Benzyl-N^3,N^5-dimethyl-1H-pyrazole-3,5-dicarboxamide] | 1000 to 10000 nM
11 | CNC(=O)c1cc(C(=O)NC2[C@H]3C[C@H](O)C[C@@H]23)n([C@H](C)c2cccc(C(F)(F)F)c2)n1 (stereo partly drawn) [Example 241] | 1000 to 10000 nM
12 | CNC(=O)c1cc(C(=O)Nc2c(C)noc2C)n([C@@H](C)c2ccccc2)n1 [Example 248] | 1000 to 10000 nM
13 | CNC(=O)c1cc(C(=O)N[C@H]2[C@@H]3COC[C@@H]32)n([C@H](C)c2ccc(Cl)c(F)c2)n1 [Example 237] | 1000 to 10000 nM
14 | CNC(=O)c1cc(C(=O)N[C@H]2[C@@H]3COC[C@@H]32)n([C@H](C)c2ccccc2)n1 [Example 109, N^5-((1R,5S,6r)-3-Oxabicyclo[3.1.0]hexan-6-yl)-N^3-methyl-1-((R)-1-phenylethyl)-1H-pyrazole-3,5-dicarboxamide] | 1000 to 10000 nM
15 | CNC(=O)c1cc(C(=O)NC2CC2)n(Cc2ccccc2OC)n1 [Example 106, N^5-Cyclopropyl-1-(2-methoxybenzyl)-N^3-methyl-1H-pyrazole-3,5-dicarboxamide] | 1000 to 10000 nM
16 | CNC(=O)c1cc(C(=O)NC2CC2)n(Cc2ccc(C#N)cc2)n1 [Example 102, 1-(4-Cyanobenzyl)-N^5-cyclopropyl-N^3-methyl-1H-pyrazole-3,5-dicarboxamide] | 1000 to 10000 nM
17 | CNC(=O)c1cc(C(=O)NC(C)(C)C)n([C@@H](C)c2ccccc2)n1 [Example 112, (S)-N^5-(tert-Butyl)-N^3-methyl-1-(1-phenylethyl)-1H-pyrazole-3,5-dicarboxamide] | 1000 to 10000 nM
18 | CNC(=O)c1cc(C(=O)N[C@H]2[C@@H]3C[C@@H](O)C[C@@H]32)n([C@H](C)c2ccc(C(F)(F)F)cc2)n1 [Example 229] | 1000 to 10000 nM
19 | CNC(=O)c1cc(C(=O)Nc2nnc(C(F)(F)F)s2)n([C@@H](C)c2ccccc2)n1 [Example 240] | 1000 to 10000 nM
20 | CNC(=O)c1cc(C(=O)N[C@H]2C[C@@H]2C)n(C(C)c2ccnc3c2ccn3S(=O)(=O)c2ccc(C)cc2)n1 (stereo partly drawn) [Example 135, N^3-Methyl-N^5-((1S,2S)-2-methylcyclopropyl)-1-(1-(1-tosyl-1H-pyrrolo[2,3-b]pyridin-4-yl)ethyl)-1H-pyrazole-3,5-dicarboxamide] | 1000 to 10000 nM
21 | CNC(=O)c1cc(C(=O)N[C@H]2[C@@H]3COC[C@@H]32)n([C@@H](C)c2ccccc2OC)n1 [Example 136, N^5-((1R,5S,6r)-3-Oxabicyclo[3.1.0]hexan-6-yl)-1-((S)-1-(2-methoxyphenyl)ethyl)-N^3-methyl-1H-pyrazole-3,5-dicarboxamide] | 1000 to 10000 nM
22 | CNC(=O)c1cc(C(=O)NC(C)C)n(Cc2ccccc2)n1 [Example 96, 1-Benzyl-N^5-isopropyl-N^3-methyl-1H-pyrazole-3,5-dicarboxamide] | 1000 to 10000 nM
23 | CNC(=O)c1cc(C(=O)N[C@H]2[C@@H]3COC[C@@H]32)n([C@H](C)c2cccc3[nH]ccc23)n1 [Example 132, 1-((R)-1-(1H-Indol-4-yl)ethyl)-N^5-((1R,5S,6r)-3-oxabicyclo[3.1.0]hexan-6-yl)-N^3-methyl-1H-pyrazole-3,5-dicarboxamide] | 1000 to 10000 nM

Same assay, conditions: BRD4 BD2 pIC50 − BRD4 BD1 pIC50; in at least one of the TR-FRET assays

Row | Structure (SMILES) | selectivity for BRD4 BD2 over BRD4 BD1
24 | CNC(=O)c1cc(C(=O)N[C@H]2[C@@H]3COC[C@@H]32)n([C@@H](C)c2ccccc2)n1 [Example 1, N^5-((1R,5S,6r)-3-Oxabicyclo[3.1.0]hexan-6-yl)-N^3-methyl-1-((S)-1-phenylethyl)-1H-pyrazole-3,5-dicarboxamide] | 2.8 log units
